This note sets out measurements from patent EP0958287B1, “SULFAMIDE-METALLOPROTEASE INHIBITORS” (F. HOFFMANN-LA ROCHE AG, priority 1997, dated 1998).

The term % inhibition denotes the relative decrease from the control value, in per cent. Lower therefore signals a weak effect. What is called inhibition is the relative decrease from the control value, in per cent. High values mean a strong effect, low ones a weak effect. The term IC50 denotes the midpoint of a concentration-inhibition curve.

Structures are written as SMILES.

For one experiment, the system named is TNF-α. The experiment in a line: Inhibition of LPS induced TNF-α production in mice in vivo. The settings on record: Female Balb/c mice, subcutaneous, LPS 50 µg/mouse i.p. after 1 h, serum TNF-α 1.5 h later. The procedure: The activity of compounds of this invention in inhibiting the TNF-α release was determined, using a minor modification of the methods described in Zanetti, G.; Heumann, D., et. al., "Cytokine production after intravenous or peritoneal Gram-negative bacterial challenge in mice" J. Immunol., 148, 1890, (1992) and Sekut, L., Menius, J.A., et. al., "Evaluation if the significance of elevated levels of systemic and localized tumor necrosis factor in different animal models of inflammation" J. Lab. Clin. Med., 124, 813, (1994).
Female Balb/c mice were anesthetized and injected subcutaneously with the test compounds dissolved in CMC vehicle or hydroxypropylmethyl cellulose based vehicle. Control animals received only the vehicle. After 1 h, LPS (50 µg/ mouse, Sigma #13129, Sigma Chemical Co., St. Louis, MO) was injected intraperitoneally. After 1.5 h, blood was collected from the retro-orbital plexus region of the animals in a microtainer serum separator tube (Becton Dickinson, Cat. No. #5960, Becton Dickinson & Co., Franklin Lakes, NJ). The sera was separated and the amount of TNF-α was determined using the EM-TNFA® kit (Endogen, Woburn, MA) by following the manufacturer's protocol.

In a further experiment the test system is TNF. The experiment in a line: Inhibition of TNF release in vitro (LPS/PMA stimulated Monomac 6 cells). Format: cell-based. The settings on record: Homo sapiens, MONO-MAC-6, Conc. 10 µM, 2 h. The procedure: The activity of compounds of this invention in inhibiting the TNF release was determined, using the a minor modification of the method described in Pradines-Figueres, A. and Raetz, C.R.H., J. Biol. Chem., 267 (32), 23261, (1992).
Human Monomac 6 cells (Ziegler-Heitbrock, H.W.L., et al., Int. J. Cancer, 41, 456, (1988)) were cultured at 37 °C in RPMI 1640 medium containing 10% fetal calf serum to a density of 1 x 10^5 cells/ml. 0.23 ml of these cells were placed in each well of a tissue culture plate and the cells were incubated for 15 min. The test compounds were dissolved in above mentioned medium and added and the incubation was continued for an additional 15 min. 10 µl of an lipopolysaccharide/phorbol-12-myristate -13-acetate (LPS/PMA) mixture was added such that the final concentration of lipopolysaccharide was 10 ng/ml and the final concentration of phorbol-12-myristate -13-acetate was 30 ng/ml. The cells were incubated for 2 h after which the plate was centrifuged and the medium was removed and analyzed for TNF content. The analysis was performed using a TNF Quantikine® Immunoassay (R & D Systems, Minneapolis, MN 55413) by following the manufacturer's protocol.

In experiment [1] the test system is collagen matrix. The experiment in a line: Degradation of cartilage plug in vitro (IL-1-α stimulated cartilage explants, hydroxyproline content). Format: cell-based. The settings on record: bovine cartilage explants stimulated with IL-1-α 20 ng/ml, 21 days; compounds at concentrations between 10 and 300 nm; hydroxyproline content relative to control.
Method: The ability of the compounds of this invention to inhibit the degradation of the collagen matrix (as judged by release of hydroxyproline) was determined by the cartilage plug degradation assay in vitro by following a slight modification of the method described in Spirito, S., Doughty, E., et al., "Metalloproteinase inhibitors halt collagen breakdown in IL-1 induced bovine nasal cartilage cultures" Inflamm.
The cultures were stimulated with IL-1-α at a final concentration of 20 ng/ml. Compounds of Formula (I), were added at concentrations between 10 and 300 nm in DMSO. The control samples contained only IL-1-α. […] The cartilage plugs were removed, hydrolyzed and the hydroxyproline content was determined. The MMP inhibitory activity of test materials is the measure of the hydroxyproline content in the test group relative to the vehicle treated group (control group).
In experiment [2] the test system is collagen matrix. The experiment in a line: Cartilage plug degradation in vivo (cartilage plug implant assay, hydroxyproline content). The settings on record: cartilage plug implant in female Lewis rats, terminated after 8 or 9 days; hydroxyproline content relative to vehicle group.
The target in the next experiment is human collagenase-3. The experiment in a line: Inhibition of matrix metalloproteases in vitro: human collagenase-3. The settings on record: hydrolysis of MCA-Pro-Leu-Gly-Leu-DPA-Ala-Arg-NH2 at 37 °C; species of collagenase-III not given. Format: biochemical.
In the next experiment the target is human collagenase-1. The experiment in a line: Inhibition of matrix metalloproteases in vitro: collagenase-1. Format: biochemical. The settings on record: hydrolysis of MCA-Pro-Leu-Gly-Leu-DPA-Ala-Arg-NH2 at 37 °C; read-out: Collagenase-I IC50.

Method for human collagenase-1: (§1) The matrix metalloprotease enzyme was diluted with assay buffer (50 mM Tricine pH 7.5, 200 mM NaCl, 10 mM CaCl2, and 0.005% Brij-35) containing 10 µmole of above substrate dissolved in DMSO.
Method for human collagenase-3: as §1

Regarding `O=C(NO)C1CCCCN1S(=O)(=O)N1CCN(c2ccc(Cl)cc2)CC1` (racemic) [compound 234], in the experiment on TNF-α, the “% inhibition” value is listed as 46%.

As to `CC(C)[C@H](C(=O)NO)N(Cc1ccccc1)S(=O)(=O)N1CCCCC1` [compound 1, N-hydroxy-2-(R)-[benzyl-(piperidine-1-sulfonyl)amino]-3-methylbutyramide], in the experiment with TNF, the inhibition at 10 µM was below 15%. In the case of `CC(C)[C@@H](NS(=O)(=O)N1CCN(c2ccc(Cl)cn2)CC1)C(=O)NO` [compound 50], the “% protection” value is listed as 71% with collagen matrix [1] and 70% in the experiment with collagen matrix [2]. The matching figures for `CC(C)[C@@H](NS(=O)(=O)N1CCN(c2ccc(Cl)cc2)CC1)C(=O)NO` [compound 51]: 35% and 45%.

Take `CC(C)[C@@H](NS(=O)(=O)N1CCN(c2ccc(OCc3ccccc3)cc2)CC1)C(=O)NO` [compound 74, N-hydroxy-2-(R)-{[4-(4-benzyloxyphenyl)piperazine-1-sulfonyl]amino}-3-methylbutyramide]: in the experiment with TNF, at 10 µM the inhibition was 17%. In addition, in the experiment on collagen matrix [2], the “% protection” value worked out at 46%. Turning to `CC(C)[C@@H](NS(=O)(=O)N1CCC(Oc2ccc(F)cc2)CC1)C(=O)NO` [compound 179], in the experiment with collagen matrix [2], the “% protection” value is 63%.

Take `O=C(NO)[C@H]1CCCCN1S(=O)(=O)N1CCCC1` [compound 232]: in the experiment with TNF-α, the “% inhibition” value was 73%. As for `O=C(c1ccc(Cl)cc1)C1CCN(S(=O)(=O)N2CCCC[C@@H]2C(=O)NO)CC1` [compound 242], in the experiment with collagen matrix [1], the “% protection” value worked out at 27%.

With `O=CN1CCN(S(=O)(=O)N2CCC(C(=O)c3ccc(Cl)cc3)CC2)C(C(=O)NO)C1` (stereo not shown) [compound 262], the “% inhibition” value in the experiment with TNF-α was determined as 50%. On the same count and under the same terms, as for `N#Cc1ccc2[nH]cc(C3CCN(S(=O)(=O)N4CCCC[C@@H]4C(=O)NO)CC3)c2c1` [compound 294], the figure is 90%.

Turning to `CN(C)C(=O)N1CCN(S(=O)(=O)N2CCC(c3c[nH]c4c(F)c(F)c(F)c(F)c34)CC2)[C@@H](C(=O)NO)C1` [compound 309], the “% inhibition” value with TNF-α is 46%. As to `CC(C)[C@@H](NS(=O)(=O)N1CCN(c2ccc(OCc3ccncc3)cc2)CC1)C(=O)O` [compound 413], the IC50 against human collagenase-3 came out at 0.26 µM; at human collagenase-1 it was 9.3 µM.
